Results: patent US6617126B1, “Method for improving the growth and colorimetric detection of bacteria, yeasts, fungi or cocci” (priority 1996, dated 2003)
In brackets after ≈: the same amount, converted by molar mass. Like-named read-outs stand apart in the source and are kept apart here.

Tests used:
[1] = tested on: Mycobacterium tuberculosis; test: microbe, parasite or virus in culture
[2] = tested on: Mycobacterium tuberculosis
[3] = H37RV, read-out: MIC (minimum inhibiting concentration), strain M.tb. H37 Rv
[4] = read-out: MIC (minimum inhibiting concentration), strain Clin. M.tb 1
[5] = read-out: MIC (minimum inhibiting concentration), strain Clin. M.tb 15

**Q.** What does the source list for `CC[C@@H](CO)NCCN[C@@H](CC)CO` [Ethambutol (EMB), Ethambutol]?
**A.** MIC [1, 3]: 0.5 µg/mL (≈ 2.45 µM); MIC [1, 4]: 0.25 µg/mL (≈ 1.22 µM); MIC [1, 5]: 0.5 µg/mL (≈ 2.45 µM)

**Q.** For `NNC(=O)c1ccncc1` [Isoniacid (INA), Isoniacid], which “MIC (minimum inhibiting concentration)” value ([2]; strain Clin. M.tb 1) is on record?
**A.** 0.03 µg/mL (≈ 0.219 µM)

**Q.** And the “MIC (minimum inhibiting concentration)” value ([2]; strain Clin. M.tb 15)?
**A.** 0.03 µg/mL (≈ 0.219 µM)

**Q.** What about the “MIC (minimum inhibiting concentration)” value ([2]; strain M.tb. H37 Rv) of the same molecule?
**A.** 0.06 µg/mL (≈ 0.438 µM)

**Q.** With `CO[C@H]1/C=C/O[C@@]2(C)Oc3c(C)c(O)c4c(O)c(c(/C=N/N5CCN(C)CC5)c(O)c4c3C2=O)NC(=O)/C(C)=C\C=C\[C@H](C)[C@H](O)[C@@H](C)[C@@H](O)[C@@H](C)[C@H](OC(C)=O)[C@@H]1C` [Rifampicin (RMP), Rifampicin] as the molecule, how does the MIC [1, 3] read?
**A.** 2 µg/mL (≈ 2.43 µM)

**Q.** What about the MIC [1, 4] of the same molecule?
**A.** 1 µg/mL (≈ 1.22 µM)

**Q.** And the MIC [1, 5]?
**A.** 2 µg/mL (≈ 2.43 µM)
